Laboratory results: EP4417607A1, “HETEROCYCLIC COMPOUND AS SOS1 INHIBITOR AND USES THEREOF” (Nanjing Zaiming Pharmaceutical Co., Ltd., priority 2021, dated 2023)
pIC50: −log10 of the molar value.

Test system: p-ERK pathway in H358 cells
Assay: p-ERK pathway inhibition in H358 cells (Advanced phospho-ERK (Thr202/Tyr204) cellular kit, HTRF)
Assay type: cell-based
Settings: Homo sapiens, NCI-H358, 1 h compound incubation
Method: The effect of the compounds of the present invention on H358 cell p-ERK pathway was assessed by Advanced phospho-ERK (Thr202/Tyr204) cellular kit method.
The experimental procedures were summarized as follows: H358 cells (ATCC, CRL-5807) were cultured in RPMI1640 (ThermoFisher, A1049101) complete medium containing 10% FBS (Gibco, 10100147) and 100 U/mL penicillin-streptomycin mixed solution (Gibco, 15140163). When the coverage of the cells in the culture vessel reached 80-90%, the cells were pipetted and seeded in a 96-well plate (Corning, 3599) at 50000 cells/well (90 µL RPMI1640 complete medium), and the plate was left to stand for 5 min, cultured in an incubator at 37 °C with 5% CO2 for 6 h, replaced with a serum-free RPMI1640, and starved overnight.
After incubation overnight, 10 µL of a diluted test compound was added to each well using a multi-channel pipette, and the 96-well plate was cultured in an incubator at 37 °C with 5% CO2 for 1 h. The supernatant was poured. The cells were washed once with PBS. 50 µL of a lysis buffer (Advanced phospho-ERK (Thr202/Tyr204) cellular kit, 64AERPEH) was added to each well. The plate was shaken at room temperature at 450 rpm for 1 h. After the cells were completely lysed, 16 µL of the supernatant was added to a 384-well plate (PE, 6007299), mixed energy donor Eu and energy acceptor D2 (D2/Eu = 1:1) were added, and the plate was incubated at room temperature for 4 h. HTRF on the microplate reader was selected for plate reading, Ratio = Signal 665 nm/Signal 620 nm × 10^4. In this experiment, the cell-free group (replaced with 1640 medium) was used as the 100% inhibition group, and the compound-free group in which the cell was added was used as the 0% inhibition group.
The inhibition percentage of H358 cell p-ERK pathway by the compounds of the present invention could be calculated by the following formula: [formula]
IC50 values of the compounds were calculated from 8 concentration points using XLfit (ID Business Solutions Ltd., UK) software by the following formula: Y = Bottom + (Top−Bottom)/(1+10^(∧)((logIC50−X)×slopefactor)) [formula]
Y is the inhibition percentage, X is the logarithmic value of the concentration of the test compound, Bottom is the minimum inhibition percentage, Top is the maximum inhibition percentage, and slope factor is the slope coefficient of the curve. The default fitted curve was used to fit the slope of the S-shaped curve to determine the IC50 value. Table 2. Results of p-ERK inhibition test by the compounds of the present invention

Going from `Cc1nc(N[C@H](C)c2cccc(C(F)F)c2F)c2cn(C3(CF)CC3)c(=O)c(C(F)(F)F)c2n1` [Example 2, (R)-4-((1-(3-(difluoromethyl)-2-fluorophenyl)ethyl)amino)-6-(1-(fluoromethyl)cyclopropyl)-2-methyl-8-(trifluoromethyl)pyrido[4,3-d]pyrimidine-7(6H)-one] to `CNc1c(=O)n(C2(CF)CC2)cc2c(N[C@H](C)c3cccc(C(F)F)c3F)nc(C)nc12` [Example 77], the pIC50 rises from 6.90 to 7.11 (0.21 log units).

Compared with `COc1c(=O)n(C2(CF)CCN(C(C)=O)C2)cc2c(N[C@H](C)c3cccc(C(F)F)c3F)nc(C)nc12` (stereo partly drawn) [Example 8, 6-(1-acetyl-3-(fluoromethyl)pyrrolidin-3-yl)-4-(((R)-1-(3-(difluoromethyl)-2-fluorophenyl)ethyl)amino)-8-methoxy-2-methylpyrido[4,3-d]pyrimidine-7(6H)-one], `COc1c(=O)n(C2(CF)CCN(C(C)=O)C2)cc2c(N[C@H](C)c3cccc(C#N)c3C)nc(C)nc12` (stereo partly drawn) [Example 17, 3-((1R)-1-((6-(1-acetyl-3-(fluoromethyl)pyrrolidin-3-yl)-8-methoxy-2-methyl-7-oxo-6,7-dihydropyrido[4,3-d]pyrimidin-4-yl)amino)ethyl)-2-methylbenzonitrile] is 0.44 log units higher in pIC50: 7.03 for the first, 7.47 for the second.

`Cc1nc(N[C@H](C)c2cccc(S(F)(F)(F)(F)F)c2)c2cn(N3CCOCC3)c(=O)cc2n1` [Example 18, (R)-2-methyl-6-morpholine-4-((1-(3-(pentafluoro-λ^6-sulfanyl)phenyl)ethyl)amino) pyrido[4,3-d]pyrimidine-7(6H)-one] and `Cc1nc(N[C@H](C)c2cccc(S(F)(F)(F)(F)F)c2)c2cn(N3CCOCC3)c(=O)c(N3CCOCC3)c2n1` [Example 81, (R)-2-methyl-6,8-dimorpholine-4-((1-(3-(pentafluoro-λ^6-sulfanyl)phenyl)ethyl)amino)pyrido[4,3-d]pyrimidine-7(6H)-one] are within 0.2 log units of each other in pIC50: 7.10 for the first, 7.11 for the second.

`COc1c(=O)n(N2CCOCC2)cc2c(N[C@H](C)c3cccc([N+](=O)[O-])c3C)nc(C)nc12` [Example 24, (R)-4-((1-(2-methyl-3-nitrophenyl)ethyl)amino)-8-methoxy-2-methyl-6-morpholinepyrido[4,3-d]pyrimidine-7(6H)-one] and `Cc1nc(N[C@H](C)c2cccc(C(F)F)c2F)c2cn(N3CCOCC3)c(=O)c(OCC3(C)COC3)c2n1` [Example 121, (R)-4-((1-(3-(difluoromethyl)-2-fluorophenyl)ethyl)amino)-2-methyl-8-((3-methloxetan-3-yl)methoxy)-6-morpholinylpyrido[4,3-d]pyrimidine-7(6H)-one] are within 0.2 log units of each other in pIC50: 7.15 for the first, 6.97 for the second.

`Cc1nc(N[C@H](C)c2cccc(C(F)F)c2F)c2cn(C3(CF)CC3)c(=O)c(N3C4CCC3COC4)c2n1` [Example 44, 8-(3-oxa-8-azabicyclo[3.2.1]oct-8-yl)-4-(((R)-1-(3-(difluoromethyl)-2-fluorophenyl)ethyl)amino)-6-(1-(fluoromethyl)cyclopropyl)-2-methylpyrido[4,3-d]pyrimidine-7(6H)-one] and `Cc1nc(N[C@H](C)c2cccc(C(F)F)c2F)c2cn(C3(CF)CC3)c(=O)c(N3C[C@H]4C[C@@H]3CO4)c2n1` [Example 53, 8-((1R,4R)-2-oxa-5-azabicyclo[2.2.1]heptan-5-yl)-4-(((R)-1-(3-(difluoromethyl)-2-fluorophenyl)ethyl)amino)-6-(1-(fluoromethyl)cyclopropyl)-2-methylpyrido[4,3-d]pyrimidine-7(6H)-one] are within 0.2 log units of each other in pIC50: 6.88 for the first, 6.75 for the second.

Compared with `Cc1nc(N[C@H](C)c2cccc(C(F)F)c2F)c2cn(C3(CF)CC3)c(=O)c(N3C[C@H]4CC[C@@H](C3)O4)c2n1` [Example 54, 8-((1R,5S)-8-oxa-3-azabicyclo[3.2.1]octan-3-yl)-4-(((R)-1-(3-(difluoromethyl)-2-fluorophenyl)ethyl)amino)-6-(1-(fluoromethyl)cyclopropyl)-2-methylpyrido[4,3-d]pyrimidine-7(6H)-one], `Cc1nc(N[C@H](C)c2cccc(C(F)F)c2F)c2cn(C3(CF)CC3)c(=O)c(N3C[C@@H](F)[C@@H](F)C3)c2n1` [Example 107, 4-(((R)-1-(3-(difluoromethyl)-2-fluorophenyl)ethyl)amino)-8-((3S,4R)-3,4-difluoropyrrolidin-1-yl)-6-(1-(fluoromethyl)cyclopropyl)-2-methylpyrido[4,3-d]pyrimidine-7(6H)-one] is 0.42 log units higher in pIC50: 6.91 for the first, 7.33 for the second. The second is the more potent here.

`Cc1nc(N[C@H](C)c2cccc(C(F)F)c2F)c2cn(C3(CF)CC3)c(=O)c(N3CC(C)(C#N)C3)c2n1` [Example 75, (R)-1-(4-((1-(3-(difluoromethyl)-2-fluorophenyl)ethyl)amino)-6-(1-(fluoromethyl)cyclopropyl)-2-methyl-7-oxo-6,7-dihydropyrido[4,3-d]pyrimidin-8-yl)-3-methylazetidine-3-carbonitrile] and `Cc1nc(N[C@H](C)c2cccc(C(F)F)c2F)c2cn(C3(CF)CC3)c(=O)c(N3CC(S(C)(=O)=O)C3)c2n1` [Example 111, (R)-4-((1-(3-(difluoromethyl)-2-fluorophenyl)ethyl)amino)-6-(1-(fluoromethyl)cyclorol-2-methyl-8-3-methylsulfonylazetidin-1-yl)pyrido[4,3-d]pyrimidine-7(6H)-one] are within 0.2 log units of each other in pIC50: 6.77 for the first, 6.96 for the second.

`Cc1nc(N[C@H](C)c2cccc(C(F)F)c2F)c2cn(N3CCOCC3)c(=O)c(N3CCO[C@@H](C)C3)c2n1` [Example 79] and `Cc1nc(N[C@H](C)c2cccc(C#N)c2C)c2cn(N3CCOCC3)c(=O)c(N3CCN4C(=O)OC[C@H]4C3)c2n1` [Example 99, 2-methyl-3-((R)-1-((2-methyl-6-morpholine-7-oxo-8-((R)-3-oxotetrahydro-3H-oxazolo[3,4-a]pyrazin-7(1H)-yl)-6,7-dihydropyrido[4,3-d]pyrimidin-4-yl)amino)ethyl)benzonitrile] are within 0.2 log units of each other in pIC50: 7.10 for the first, 6.95 for the second.

Compared with `Cc1nc(N[C@H](C)c2cccc(C(F)F)c2F)c2cn(C3(CF)CC3)c(=O)c(Nc3cnn(C)c3)c2n1` [Example 93, (R)-4-((1-(3-(difluoromethyl)-2-fluorophenyl)ethyl)amino)-6-(1-(fluoromethyl)cyclopropyl)-2-methyl-8-((1-methyl-1H-pyrazol-4-yl)amino)pyrido[4,3-d]pyrimidine-7(6H)-one], `Cc1nc(N[C@H](C)c2cccc(C(F)F)c2F)c2cn(C3(CF)CC3)c(=O)c(-n3cc(C#N)cn3)c2n1` [Example 101, (R)-1-(4-((1-(3-(difluoromethyl)-2-fluorophenyl)ethyl)amino)-6-(1-(fluoromethyl)cyclopropyl)-2-methyl-7-oxo-6,7-dihydropyrido[4,3-d]pyrimidin-8-yl)-1H-pyrazole-4-carbonitrile] is 0.26 log units higher in pIC50: 7.04 for the first, 7.30 for the second.

`Cc1nc(N[C@H](C)c2cccc(C(F)F)c2F)c2cn(C3(CF)CC3)c(=O)c(NC[C@@H]3CCO3)c2n1` [Example 105, 4-(((R)-1-(3-(difluoromethyl)-2-fluorophenyl)ethyl)amino)-6-(1-(fluoromethyl)cyclopropyl)-2-methyl-8-((((S)-oxetan-2-yl)methyl)amino)pyrido[4,3-d]pyrimidine-7(6H)-one] and `Cc1nc(N[C@H](C)c2cccc(C(F)F)c2F)c2cn(C3(CF)CC3)c(=O)c(-c3c(C)noc3C)c2n1` [Example 123, (R)-4-((1-(3-(difluoromethyl)-2-fluorophenyl)ethyl)amino)-8-(3,5-dimethylisoxazol-4-yl)-6-(1-(fluoromethyl)cyclopropyl)-2-methylpyrido[4,3-d]pyrimidine-7(6H)-one] are within 0.2 log units of each other in pIC50: 7.01 for the first, 6.95 for the second.

`Cc1nc(N[C@H](C)c2cccc(C(F)F)c2F)c2cn(C3(CF)CC3)c(=O)c(N3Cc4cn(C5CC5)nc4C3)c2n1` [Example 106] and `Cc1nc(N[C@H](C)c2cccc(C(F)F)c2F)c2cn(C3(CF)CC3)c(=O)c(N3CCN(CC#N)CC3)c2n1` [Example 134, (R)-2-(4-(4-((1-(3-(difluoromethyl)-2-fluorophenyl)ethyl)amino)-6-(1-(fluoromethyl)cyclopropyl)-2-methyl-7-oxo-6,7-dihydropyrido[4,3-d]pyrimidin-8-yl)piperazin-1-yl)acetonitrile] are within 0.2 log units of each other in pIC50: 7.32 for the first, 7.31 for the second.

For `Cc1nc(N[C@H](C)c2cccc(C(F)F)c2F)c2cn(C3(CF)CC3)c(=O)c(-c3cnc4cnn(C)c4c3)c2n1` [Example 129, (R)-4-((1-(3-(difluoromethyl)-2-fluorophenyl)ethyl)amino)-6-(1-(fluoromethyl)cyclopropyl)-2-methyl-8-(1-methyl-1H-pyrazolo[4,3-b]pyridin-6-yl)pyrido[4,3-d]pyrimidine-7(6H)-one], the pIC50 was 6.90.
